Reference: patent publication US8569315B2, “Synergistic antimicrobial composition” (priority 2009, dated 2013)

Assays:
Type in all cases: cell-based
Calothrix parientina = assay: Algal efficacy testing, modified ASTM 5589, paint film; settings: for Total conc: total biocide in paint chosen as minimum inhibitory concentration, dry film; for Total conc / % inhibition: 3 weeks
Protocol: (§1) Sample preparation: Samples of white acrylic latex paint free of biocides were prepared in 50 ml aliquots. Each biocide was post added to give the necessary active ingredient concentration in the paint. The total biocides concentrations tested were 750, 1500, 2500 and 5000 ppm. After biocides addition, each sample was hand mixed for a minimum of 30 sec, followed by a 3 min run on the paint shaker (RED DEVIL). Each of the paint samples as well as a control sample (containing no biocide) were used to prepare films on black plastic-vinyl chloride/acetate copolymer panels (LENETA, Mahwah, N.J.) using a 3 mil bird bar applicator. The panels were thoroughly dried for 5 days avoiding direct exposure to sunlight. Square discs (15 mm^2) were cut out from each panel and were used as the substrate for fungal and algal efficacy tests. This sample size allowed for an agar border when the sample disc was placed into the well of the test plate.
(§2) The appropriate media (BOLD'S 3N for Chlorophytes, BG-11 for Cyanobacteria, and PDA for fungi) were used to support microbial growth. The test plates were maintained at room temp (25° C.-26° C.), in a cycled light-dark environment, for 3 weeks for algae. Plates for fungal challenge tests were maintained at 30 C for three weeks. At the end of incubation period the samples were scored for percent area covered by visible microbial growth.
(§3) ASTM 5589 is a standard accelerated test method for determining resistance of various coatings (including paints) to algal defacement. To accommodate for high-throughput screening, this method was scaled down from petri plates to 12-well plates. A single coupon was placed with a pair of sterile forceps at the center of the agar plug (on top) with the painted surface facing upwards. Each well was inoculated with 150 μl of organism (1×10^6 cfu/ml) making sure that the whole surface (paint film as well as the agar surrounding it) was evenly covered. The plates were incubated at room temp (25° C.-26° C.) with cyclic exposure to light (OTT-Lite model # OTL4012P, 40 Watt, 26 KLumen) and dark phases, for a period of three weeks. The total area covered was evaluated at the end of each week after the second week according to percent area covered in 5% increments. While rating the plates, notations were made for zones of inhibition.
(§4) The SI is calculated based on F. C. Kull et.

[1] = tested on: Chlorella sp. UTEX + Chlorella kessleri; assay: as above; settings: for Total conc: total biocide in paint chosen as minimum inhibitory concentration, dry film; for Total conc / % inhibition: 3 weeks
Protocol: as §1, §2, §3, §4

Gleocapsa sp. = assay: as above; settings: for Total conc: total biocide in paint chosen as minimum inhibitory concentration, dry film; for Total conc / % inhibition: 3 weeks
Protocol: as §1, §2, §3, §4

Nostoc commune = assay: as above; settings: for Total conc: total biocide in paint chosen as minimum inhibitory concentration, dry film; for Total conc / % inhibition: 3 weeks
Protocol: as §1, §2, §3, §4

Oscillatoria sp. = assay: as above; settings: for Total conc: total biocide in paint chosen as minimum inhibitory concentration, dry film; for Total conc / % inhibition: 3 weeks
Protocol: as §1, §2, §3, §4

[2] = tested on: Trentepohlia aurea + Trentepohlia odorata; assay: as above; settings: for Total conc: total biocide in paint chosen as minimum inhibitory concentration, dry film; for Total conc / % inhibition: 3 weeks; for % inhibition: total conc 1500 ppm in paint
Protocol: as §1, §2, §3, §4

Alternaria alternata = assay: Fungal efficacy testing, modified ASTM 5590, paint film; settings: for Total conc: total biocide in paint chosen as minimum inhibitory concentration, dry film; for Total conc / % inhibition: 3 weeks
Protocol: as §1, §2
(§5) ASTM 5590 is a standard accelerated test method for determining resistance of various coatings (including paints) to fungal defacement. To accommodate for high-throughput screening, this method was scaled down from petri plates to 12-well plates. To set up the test, an agar plug was placed at the bottom of each well of the sterile 12-well plate. A single coupon was placed with a pair of sterile forceps at the center of the agar plug (on top) with the painted surface facing upwards. Each well was inoculated with 150 μl of organism (1×10^6 cfu/ml) making sure that the whole surface (paint film as well as the agar surrounding it) was evenly covered. The plates were incubated at 30° C. in presence of moisture, for a period of three weeks. The total percent area covered was evaluated and recorded at the end of each week after the 2nd week and recorded in increments of 5%.
as §4

Aspergillus niger = assay: as above; settings: for Total conc: total biocide in paint chosen as minimum inhibitory concentration, dry film; for Total conc / % inhibition: 3 weeks; for % inhibition: total conc 1500 ppm in paint
Protocol: as §1, §2, §5, §4

Aureobasidium pullulans = assay: as above; settings: for Total conc: total biocide in paint chosen as minimum inhibitory concentration, dry film; for Total conc / % inhibition: 3 weeks
Protocol: as §1, §2, §5, §4

Cladosporium herbarum = assay: as above; settings: for Total conc: total biocide in paint chosen as minimum inhibitory concentration, dry film; for Total conc / % inhibition: 3 weeks
Protocol: as §1, §2, §5, §4

Penicillium funiculosum = assay: as above; settings: for Total conc: total biocide in paint chosen as minimum inhibitory concentration, dry film; for Total conc / % inhibition: 3 weeks
Protocol: as §1, §2, §5, §4

Trichoderma viride = assay: as above; settings: for Total conc: total biocide in paint chosen as minimum inhibitory concentration, dry film; for Total conc / % inhibition: 3 weeks
Protocol: as §1, §2, §5, §4

Stachybotris chartarum = assay: as above; settings: for Total conc: total biocide in paint chosen as minimum inhibitory concentration, dry film
Protocol: as §1, §2, §5, §4

[3] = total conc 750 ppm in paint, Table 3
[4] = total conc 1500 ppm in paint, Table 3
[5] = total conc 2500 ppm in paint, Table 3
[6] = total conc 2500 ppm in paint, Table 4
[7] = total conc 1500 ppm in paint, Table 4
[8] = total conc 750 ppm in paint, Table 4
[9] = total conc 1500 ppm in paint, Table 1
[10] = total conc 1500 ppm in paint, Table 2

SMILES: CCOc1nc(F)cc2nc(S(=O)(=O)Nc3c(Cl)cccc3Cl)nn12 [Diclosulam]
- Total conc (Calothrix parientina; Table 3): 750 ppm
- % inhibition (Calothrix parientina; [3]): 80%
- Total conc ([1]; Table 3): 750 ppm
- % inhibition [1, 3]: 75%
- Total conc (Gleocapsa sp.; Table 3): 1500 ppm
- % inhibition (Gleocapsa sp.; [4]): 60%
- Total conc (Nostoc commune; Table 3): 2500 ppm
- % inhibition (Nostoc commune; [5]): 75%
- Total conc (Oscillatoria sp.; Table 3): 750 ppm
- % inhibition (Oscillatoria sp.; [3]): 80%
- Total conc ([2]; Table 3): 1500 ppm
- % inhibition ([2]; Table 3): 80%
- Total conc (Alternaria alternata; Table 4): 2500 ppm
- % inhibition (Alternaria alternata; [6]): 0%
- Total conc (Aspergillus niger; Table 4): 1500 ppm
- % inhibition (Aspergillus niger; Table 4): 80%
- Total conc (Aureobasidium pullulans; Table 4): 1500 ppm
- % inhibition (Aureobasidium pullulans; [7]): 35%
- Total conc (Cladosporium herbarum; Table 4): 2500 ppm
- % inhibition (Cladosporium herbarum; [6]): 80%
- Total conc (Penicillium funiculosum; Table 4): 2500 ppm
- % inhibition (Penicillium funiculosum; [6]): 45%
- Total conc (Trichoderma viride; Table 4): 750 ppm
- % inhibition (Trichoderma viride; [8]): 80%

SMILES: Cc1ccn2nc(S(=O)(=O)Nc3c(F)cccc3F)nc2n1 [Flumetsulam]
- inhibition at 2500 ppm (Calothrix parientina; 504 h): 90%
- Total conc (Calothrix parientina; Table 1): 2500 ppm
- inhibition at 2500 ppm ([1]; 504 h): 80%
- Total conc ([1]; Table 1): 2500 ppm
- inhibition at 1500 ppm (Gleocapsa sp.; 504 h): 90%
- Total conc (Gleocapsa sp.; Table 1): 1500 ppm
- inhibition at 1500 ppm (Nostoc commune; Nostoc commune, 504 h): 85%
- Total conc (Nostoc commune; Table 1): 1500 ppm
- inhibition at 1500 ppm (Oscillatoria sp.; 504 h): 80%
- Total conc (Oscillatoria sp.; Table 1): 1500 ppm
- inhibition at 1500 ppm ([2]; 504 h): 85%
- Total conc ([2]; Table 1): 1500 ppm
- inhibition at 2500 ppm (Alternaria alternata; Alternaria alternata, 504 h): 90%
- Total conc (Alternaria alternata; Table 2): 2500 ppm
- inhibition at 2500 ppm (Aspergillus niger; Aspergillus niger, 504 h): 40%
- Total conc (Aspergillus niger; Table 2): 2500 ppm
- inhibition at 2500 ppm (Aureobasidium pullulans; Aureobasidium pullulans, 504 h): 90%
- Total conc (Aureobasidium pullulans; Table 2): 2500 ppm
- inhibition at 1500 ppm (Cladosporium herbarum; Cladosporium herbarum, 504 h): 85%
- Total conc (Cladosporium herbarum; Table 2): 1500 ppm
- inhibition at 1500 ppm (Penicillium funiculosum; Talaromyces funiculosus, 504 h): 80%
- Total conc (Penicillium funiculosum; Table 2): 1500 ppm
- inhibition at 2500 ppm (Stachybotris chartarum; 504 h): 70%
- Total conc (Stachybotris chartarum; 3 weeks, Table 2): 2500 ppm
- inhibition at 2500 ppm (Trichoderma viride; Trichoderma viride, 504 h): 70%
- Total conc (Trichoderma viride; Table 2): 2500 ppm

SMILES: CCCCNC(=O)OCC#CI [IPBC, 3-iodo-2-propynyl-butylcarbamate]
- Total conc (Calothrix parientina; Table 1): 1500 ppm
- Total conc (Calothrix parientina; Table 3): 750 ppm
- % inhibition (Calothrix parientina; [3]): 80%
- % inhibition (Calothrix parientina; [9]): 80%
- Total conc ([1]; Table 1): 2500 ppm
- Total conc ([1]; Table 3): 2500 ppm
- % inhibition ([1]; total conc 2500 ppm in paint, Table 1): 80%
- % inhibition [1, 5]: 80%
- Total conc (Gleocapsa sp.; Table 1): 750 ppm
- Total conc (Gleocapsa sp.; Table 3): 2500 ppm
- % inhibition (Gleocapsa sp.; total conc 750 ppm in paint, Table 1): 80%
- % inhibition (Gleocapsa sp.; [5]): 50%
- Total conc (Nostoc commune; Table 1): 1500 ppm
- Total conc (Nostoc commune; Table 3): 1500 ppm
- % inhibition (Nostoc commune; [9]): 80%
- % inhibition (Nostoc commune; [4]): 80%
- Total conc (Oscillatoria sp.; Table 1): 1500 ppm
- Total conc (Oscillatoria sp.; Table 3): 2500 ppm
- % inhibition (Oscillatoria sp.; [9]): 80%
- % inhibition (Oscillatoria sp.; [5]): 80%
- Total conc ([2]; Table 1): 1500 ppm
- Total conc ([2]; Table 3): 1500 ppm
- % inhibition ([2]; Table 1): 80%
- % inhibition ([2]; Table 3): 80%
- Total conc (Alternaria alternata; Table 2): 1500 ppm
- Total conc (Alternaria alternata; Table 4): 2500 ppm
- % inhibition (Alternaria alternata; [10]): 85%
- % inhibition (Alternaria alternata; [6]): 50%
- Total conc (Aspergillus niger; Table 2): 1500 ppm
- Total conc (Aspergillus niger; Table 4): 1500 ppm
- % inhibition (Aspergillus niger; Table 2): 60%
- % inhibition (Aspergillus niger; Table 4): 85%
- Total conc (Aureobasidium pullulans; Table 2): 1500 ppm
- Total conc (Aureobasidium pullulans; Table 4): 750 ppm
- % inhibition (Aureobasidium pullulans; [8]): 60%
- % inhibition (Aureobasidium pullulans; [10]): 90%
- Total conc (Cladosporium herbarum; Table 2): 1500 ppm
- Total conc (Cladosporium herbarum; Table 4): 1500 ppm
- % inhibition (Cladosporium herbarum; [10]): 90%
- % inhibition (Cladosporium herbarum; [7]): 80%
- Total conc (Penicillium funiculosum; Table 2): 1500 ppm
- Total conc (Penicillium funiculosum; Table 4): 1500 ppm
- % inhibition (Penicillium funiculosum; [10]): 90%
- % inhibition (Penicillium funiculosum; [7]): 70%
- Total conc (Stachybotris chartarum; 3 weeks, Table 2): 2500 ppm
- % inhibition (Stachybotris chartarum; total conc 2500 ppm in paint, 3 weeks, Table 2): 65%
- Total conc (Trichoderma viride; Table 2): 1500 ppm
- Total conc (Trichoderma viride; Table 4): 1500 ppm
- % inhibition (Trichoderma viride; [10]): 75%
- % inhibition (Trichoderma viride; [7]): 85%
